Measurements as given in ChEMBL document CHEMBL1201862, “PubChem BioAssay data set” (2004).
The source made the active and inactive calls.

Assays:
Tumor necrosis factor = Tumor necrosis factor (Homo sapiens, UniProt P01375); assay: analog potency on TNFa NF-kB signaling – cell-based, revised, SAR follow-up (AID 2337); assay type: functional
[1] = molecular target: T1, Nucleotide-binding oligomerization domain-containing protein 1 (Homo sapiens, UniProt Q9Y239); assay: blockers of NOD1 pathway activity – revised, SAR follow-up (AID 2333); assay type: functional
T1 sequence (Q9Y239 whole entry): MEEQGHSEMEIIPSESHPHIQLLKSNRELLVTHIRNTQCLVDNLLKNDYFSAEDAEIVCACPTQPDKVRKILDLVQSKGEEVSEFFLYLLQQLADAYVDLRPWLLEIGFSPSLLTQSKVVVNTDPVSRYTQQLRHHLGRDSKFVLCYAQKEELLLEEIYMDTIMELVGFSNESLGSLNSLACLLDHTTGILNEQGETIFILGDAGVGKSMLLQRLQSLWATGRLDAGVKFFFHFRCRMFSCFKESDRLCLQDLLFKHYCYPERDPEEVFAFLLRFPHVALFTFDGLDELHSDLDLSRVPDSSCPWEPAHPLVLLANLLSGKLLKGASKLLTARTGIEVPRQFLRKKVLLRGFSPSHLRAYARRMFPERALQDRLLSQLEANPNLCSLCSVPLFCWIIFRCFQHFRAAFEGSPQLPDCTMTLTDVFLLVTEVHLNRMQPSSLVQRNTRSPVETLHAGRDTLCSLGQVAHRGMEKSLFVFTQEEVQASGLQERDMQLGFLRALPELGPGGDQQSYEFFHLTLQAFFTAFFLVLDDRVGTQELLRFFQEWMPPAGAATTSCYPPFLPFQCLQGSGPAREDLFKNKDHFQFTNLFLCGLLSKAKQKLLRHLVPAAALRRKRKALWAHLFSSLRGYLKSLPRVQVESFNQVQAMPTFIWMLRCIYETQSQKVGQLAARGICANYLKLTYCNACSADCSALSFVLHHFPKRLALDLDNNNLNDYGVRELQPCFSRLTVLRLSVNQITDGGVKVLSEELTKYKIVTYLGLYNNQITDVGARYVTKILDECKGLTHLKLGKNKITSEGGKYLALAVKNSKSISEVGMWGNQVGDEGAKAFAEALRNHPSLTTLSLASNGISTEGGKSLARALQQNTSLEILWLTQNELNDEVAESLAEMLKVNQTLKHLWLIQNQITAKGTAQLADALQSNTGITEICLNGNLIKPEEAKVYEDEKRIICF

[2] = molecular target: Luciferin 4-monooxygenase (Photinus pyralis, UniProt P08659); assay: inhibition of purified Photinus pyralis luciferase – biochemical, dry powder samples, plate reader, dose response (AID 588451)
Sequence of Luciferin 4-monooxygenase (P08659 whole entry): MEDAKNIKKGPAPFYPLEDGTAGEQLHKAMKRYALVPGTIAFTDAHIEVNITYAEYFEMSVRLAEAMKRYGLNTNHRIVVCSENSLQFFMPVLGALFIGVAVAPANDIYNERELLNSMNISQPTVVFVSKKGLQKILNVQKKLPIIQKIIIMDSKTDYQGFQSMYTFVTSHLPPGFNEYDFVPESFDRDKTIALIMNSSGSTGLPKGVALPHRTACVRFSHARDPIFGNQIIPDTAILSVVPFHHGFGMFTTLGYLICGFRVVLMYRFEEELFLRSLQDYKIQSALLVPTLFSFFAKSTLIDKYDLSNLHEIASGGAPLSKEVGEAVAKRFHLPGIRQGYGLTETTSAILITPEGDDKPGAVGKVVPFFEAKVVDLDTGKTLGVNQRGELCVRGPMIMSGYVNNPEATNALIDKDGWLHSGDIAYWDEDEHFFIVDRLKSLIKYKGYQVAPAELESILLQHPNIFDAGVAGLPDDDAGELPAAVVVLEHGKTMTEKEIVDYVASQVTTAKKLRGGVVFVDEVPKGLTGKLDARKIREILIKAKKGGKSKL

H4 [3] = assay: inhibitors of control reporter signal in H4 cells – cell-based, plate reader, dry powder samples, counter-screen for prion reporter project, dose response (AID 540255); assay type: functional; conditions: Homo sapiens
H4 [4] = assay: Amyloid Precursor 5' UTR neuroblastoma cell reporter line Measured in Cell-Based System Using Plate Reader - 2078-04_Inhibitor_Dose_DryPowder_Activity. [Related pubchem assays (depositor defined):AID488894]; assay type: functional; conditions: Homo sapiens
H4 [5] = assay: Inhibitors of Prion Protein 5' UTR mRNA Measured in Cell-Based System Using Plate Reader - 2078-01_Inhibitor_Dose_DryPowder_Activity. [Related pubchem assays (depositor defined):AID488894]; assay type: functional; conditions: Homo sapiens
HEK293 = assay: cells; conditions: Homo sapiens
[6] = molecular target: T2, Sentrin-specific protease 8 (Homo sapiens, UniProt Q96LD8); assay: inhibition of human SENP8 cleavage activity – biochemical, luminescence, SAR follow-up (AID 504501); assay type: functional
T2 sequence (Q96LD8 whole entry): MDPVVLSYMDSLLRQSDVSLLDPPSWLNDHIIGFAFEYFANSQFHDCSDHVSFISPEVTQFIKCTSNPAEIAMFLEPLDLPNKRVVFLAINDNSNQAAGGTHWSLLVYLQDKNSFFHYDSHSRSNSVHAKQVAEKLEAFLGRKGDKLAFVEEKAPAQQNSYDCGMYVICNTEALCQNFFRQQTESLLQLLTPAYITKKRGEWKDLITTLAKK

Caspase-3 = molecular target: T3, Caspase-3 (Homo sapiens, UniProt P42574); assay: SAR Analysis of small molecule inhibitors of Sentrin-specific proteases (SENPs) using a Caspase-3 Selectivity assay. [Related pubchem assays (depositor defined):AID2540, AID2599, AID434973, AID489001]; assay type: functional
T3 sequence (P42574 whole entry): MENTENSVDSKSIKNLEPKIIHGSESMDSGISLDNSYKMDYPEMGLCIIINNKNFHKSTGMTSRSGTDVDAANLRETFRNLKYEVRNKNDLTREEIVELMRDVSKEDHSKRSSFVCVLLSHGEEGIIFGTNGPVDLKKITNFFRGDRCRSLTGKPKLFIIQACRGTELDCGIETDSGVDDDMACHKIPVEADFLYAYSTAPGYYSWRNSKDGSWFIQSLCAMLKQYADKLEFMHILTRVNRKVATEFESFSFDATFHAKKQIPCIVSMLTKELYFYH

[7] = molecular target: T4, Sentrin-specific protease 6 (Homo sapiens, UniProt Q9GZR1); assay: SAR Analysis of small molecule inhibitors of Sentrin-specific protease 6 (SENP6) using a Luminescent assay. [Related pubchem assays (depositor defined):AID2582, AID2599]; assay type: functional
T4 sequence (Q9GZR1 whole entry): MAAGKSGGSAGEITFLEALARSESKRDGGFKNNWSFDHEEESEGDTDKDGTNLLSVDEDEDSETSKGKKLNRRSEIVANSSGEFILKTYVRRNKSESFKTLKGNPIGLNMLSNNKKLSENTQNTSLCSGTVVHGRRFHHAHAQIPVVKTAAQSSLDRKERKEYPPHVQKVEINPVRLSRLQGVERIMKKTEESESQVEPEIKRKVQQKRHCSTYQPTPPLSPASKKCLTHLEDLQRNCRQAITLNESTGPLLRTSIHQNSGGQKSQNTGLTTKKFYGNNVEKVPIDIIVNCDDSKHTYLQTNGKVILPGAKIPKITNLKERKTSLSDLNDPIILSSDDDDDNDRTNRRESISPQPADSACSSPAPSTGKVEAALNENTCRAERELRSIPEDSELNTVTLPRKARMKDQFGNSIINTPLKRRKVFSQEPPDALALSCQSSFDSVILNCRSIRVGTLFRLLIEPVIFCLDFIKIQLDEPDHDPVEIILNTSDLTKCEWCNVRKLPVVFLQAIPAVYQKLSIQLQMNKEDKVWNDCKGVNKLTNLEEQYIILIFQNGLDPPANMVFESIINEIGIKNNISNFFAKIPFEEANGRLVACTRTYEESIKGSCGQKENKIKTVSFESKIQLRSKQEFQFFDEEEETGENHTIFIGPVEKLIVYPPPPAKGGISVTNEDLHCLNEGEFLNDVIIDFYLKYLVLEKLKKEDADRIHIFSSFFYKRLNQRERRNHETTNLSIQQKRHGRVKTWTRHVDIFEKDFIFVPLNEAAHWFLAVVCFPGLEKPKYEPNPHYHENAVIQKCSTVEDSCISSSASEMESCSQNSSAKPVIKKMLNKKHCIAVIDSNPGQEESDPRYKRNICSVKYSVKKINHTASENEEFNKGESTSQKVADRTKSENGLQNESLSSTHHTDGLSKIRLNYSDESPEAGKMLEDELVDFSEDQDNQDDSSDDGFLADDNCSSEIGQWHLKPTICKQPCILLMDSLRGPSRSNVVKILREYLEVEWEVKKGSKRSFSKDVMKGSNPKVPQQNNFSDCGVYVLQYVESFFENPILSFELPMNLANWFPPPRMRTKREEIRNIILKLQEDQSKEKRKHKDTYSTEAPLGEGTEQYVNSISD

[8] = molecular target: T5, Sentrin-specific protease 7 (Homo sapiens, UniProt Q9BQF6); assay: inhibition of human SENP7 cleavage activity – biochemical, luminescence, SAR follow-up (AID 504497); assay type: functional
T5 sequence (Q9BQF6 whole entry): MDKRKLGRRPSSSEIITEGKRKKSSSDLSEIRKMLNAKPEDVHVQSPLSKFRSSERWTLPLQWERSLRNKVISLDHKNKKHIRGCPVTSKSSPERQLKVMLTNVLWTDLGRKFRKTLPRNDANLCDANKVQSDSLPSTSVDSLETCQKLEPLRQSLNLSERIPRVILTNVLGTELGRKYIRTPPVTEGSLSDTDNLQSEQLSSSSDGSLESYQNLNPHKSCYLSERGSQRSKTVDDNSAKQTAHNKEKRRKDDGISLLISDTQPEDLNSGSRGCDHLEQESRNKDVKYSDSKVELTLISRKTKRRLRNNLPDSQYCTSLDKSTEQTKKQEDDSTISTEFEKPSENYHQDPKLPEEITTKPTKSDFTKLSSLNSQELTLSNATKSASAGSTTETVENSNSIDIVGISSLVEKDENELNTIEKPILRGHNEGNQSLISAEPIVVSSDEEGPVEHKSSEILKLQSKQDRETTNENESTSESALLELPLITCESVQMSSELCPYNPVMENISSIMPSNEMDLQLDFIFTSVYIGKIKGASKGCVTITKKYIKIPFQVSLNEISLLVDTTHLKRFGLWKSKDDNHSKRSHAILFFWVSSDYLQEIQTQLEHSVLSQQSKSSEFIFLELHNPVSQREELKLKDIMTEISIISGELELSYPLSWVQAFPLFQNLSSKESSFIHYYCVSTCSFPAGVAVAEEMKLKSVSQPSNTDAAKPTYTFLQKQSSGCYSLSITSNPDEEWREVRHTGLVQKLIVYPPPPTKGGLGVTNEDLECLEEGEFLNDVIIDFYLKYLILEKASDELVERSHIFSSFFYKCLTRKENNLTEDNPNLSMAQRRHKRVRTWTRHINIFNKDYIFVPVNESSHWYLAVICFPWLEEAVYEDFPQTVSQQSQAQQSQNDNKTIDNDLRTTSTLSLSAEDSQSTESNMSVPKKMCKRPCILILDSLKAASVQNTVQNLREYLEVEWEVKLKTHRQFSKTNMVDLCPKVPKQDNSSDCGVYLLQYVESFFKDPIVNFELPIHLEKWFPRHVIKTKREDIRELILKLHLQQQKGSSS

[9] = molecular target: Mitogen-activated protein kinase 10 (Homo sapiens, UniProt P53779); assay: Dose response biochemical screening assay for inhibitors of c-Jun N-Terminal Kinase 3 (JNK3). [Related pubchem assays: 746 ]
Sequence of Mitogen-activated protein kinase 10 (P53779 whole entry): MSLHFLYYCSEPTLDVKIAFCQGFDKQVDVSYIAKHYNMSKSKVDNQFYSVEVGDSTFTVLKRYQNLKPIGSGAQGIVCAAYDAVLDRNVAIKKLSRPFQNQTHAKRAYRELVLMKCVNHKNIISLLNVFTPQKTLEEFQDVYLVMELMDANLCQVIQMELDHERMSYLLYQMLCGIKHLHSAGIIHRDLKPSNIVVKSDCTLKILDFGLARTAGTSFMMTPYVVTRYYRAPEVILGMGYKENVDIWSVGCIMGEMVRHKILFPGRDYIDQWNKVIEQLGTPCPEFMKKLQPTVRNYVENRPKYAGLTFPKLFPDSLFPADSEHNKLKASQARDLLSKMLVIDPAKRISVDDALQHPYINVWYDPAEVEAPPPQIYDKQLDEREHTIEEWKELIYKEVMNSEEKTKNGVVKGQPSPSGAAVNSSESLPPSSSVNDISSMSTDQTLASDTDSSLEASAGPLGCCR

[10] = molecular target: T6, Cyclin-dependent kinase 5/CDK5 activator 1 (Homo sapiens, UniProt Q00535); assay: blockade of human CDK5 activity – biochemical, cherry-picked samples, set 2, dose response (AID 504545)
T6 sequence (Q00535 whole entry): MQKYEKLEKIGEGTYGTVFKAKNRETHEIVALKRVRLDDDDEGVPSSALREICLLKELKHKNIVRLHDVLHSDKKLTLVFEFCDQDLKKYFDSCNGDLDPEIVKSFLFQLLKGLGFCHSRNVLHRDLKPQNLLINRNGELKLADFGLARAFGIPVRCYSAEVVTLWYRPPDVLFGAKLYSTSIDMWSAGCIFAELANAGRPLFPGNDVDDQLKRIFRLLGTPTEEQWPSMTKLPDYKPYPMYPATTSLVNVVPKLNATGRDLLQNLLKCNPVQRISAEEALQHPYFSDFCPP
T6 sequence (Q15078 whole entry, further chain): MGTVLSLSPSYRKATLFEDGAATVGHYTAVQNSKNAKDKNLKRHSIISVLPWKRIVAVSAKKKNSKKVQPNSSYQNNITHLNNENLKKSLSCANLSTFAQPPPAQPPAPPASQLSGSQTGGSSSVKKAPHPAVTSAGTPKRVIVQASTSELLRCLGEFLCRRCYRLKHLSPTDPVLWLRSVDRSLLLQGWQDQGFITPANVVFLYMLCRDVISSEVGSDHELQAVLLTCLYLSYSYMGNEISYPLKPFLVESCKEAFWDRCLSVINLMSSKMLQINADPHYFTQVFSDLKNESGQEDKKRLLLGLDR

[11] = molecular target: Glycogen synthase kinase-3 alpha (Homo sapiens, UniProt P49840); assay: Inhibition of Human GSK-3 alpha Activity Measured in Biochemical System Using Microfluidics - 2063-06_Inhibitor_Dose_DryPowder_Activity_Set2. [Related pubchem assays (depositor defined):AID2709]
Sequence of Glycogen synthase kinase-3 alpha (P49840 whole entry): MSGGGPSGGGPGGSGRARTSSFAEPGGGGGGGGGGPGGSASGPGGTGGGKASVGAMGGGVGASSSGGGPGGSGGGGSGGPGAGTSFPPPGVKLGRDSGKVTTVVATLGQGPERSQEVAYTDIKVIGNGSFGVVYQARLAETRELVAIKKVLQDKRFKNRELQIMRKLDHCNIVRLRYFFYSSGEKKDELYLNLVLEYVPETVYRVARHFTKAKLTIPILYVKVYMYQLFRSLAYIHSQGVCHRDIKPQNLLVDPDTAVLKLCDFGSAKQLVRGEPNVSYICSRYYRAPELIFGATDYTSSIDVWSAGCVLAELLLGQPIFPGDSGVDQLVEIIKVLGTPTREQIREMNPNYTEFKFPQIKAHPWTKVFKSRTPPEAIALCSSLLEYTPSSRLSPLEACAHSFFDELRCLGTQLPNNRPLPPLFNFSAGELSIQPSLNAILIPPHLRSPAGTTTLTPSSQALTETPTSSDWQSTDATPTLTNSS

[12] = molecular target: Glycogen synthase kinase-3 beta (Homo sapiens, UniProt P49841); assay: Inhibition of Human GSK-3 beta Activity Measured in Biochemical System Using Microfluidics - 2063-05_Inhibitor_Dose_DryPowder_Activity_Set2. [Related pubchem assays (depositor defined):AID2709]
Sequence of Glycogen synthase kinase-3 beta (P49841 whole entry): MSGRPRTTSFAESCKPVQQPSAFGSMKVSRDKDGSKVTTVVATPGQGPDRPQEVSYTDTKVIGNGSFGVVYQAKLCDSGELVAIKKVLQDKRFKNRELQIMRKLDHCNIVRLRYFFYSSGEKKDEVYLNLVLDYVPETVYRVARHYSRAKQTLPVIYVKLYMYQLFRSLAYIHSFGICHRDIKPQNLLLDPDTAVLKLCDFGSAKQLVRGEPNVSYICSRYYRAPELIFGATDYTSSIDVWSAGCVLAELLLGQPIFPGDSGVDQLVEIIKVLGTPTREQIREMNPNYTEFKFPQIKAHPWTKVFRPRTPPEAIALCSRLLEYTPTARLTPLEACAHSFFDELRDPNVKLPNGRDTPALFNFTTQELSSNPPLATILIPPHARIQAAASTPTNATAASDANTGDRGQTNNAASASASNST

[13] = molecular target: T6, Cyclin-dependent kinase 5/CDK5 activator 1; assay: human CDK5 activity blockade – biochemical, microfluidic mobility shift, dry powder, selectivity assay for GSK-3 alpha inhibitor project, dose response (AID 588430)
[14] = molecular target: Photoreceptor-specific nuclear receptor (Homo sapiens, UniProt Q9Y5X4); assay type: functional, cell-based;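 further: CHO-S cells with Gal4-NCOR and VP16-NR2E3 two-hybrid luciferase reporter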
Sequence of Photoreceptor-specific nuclear receptor (Q9Y5X4 whole entry, the tested form may be a part): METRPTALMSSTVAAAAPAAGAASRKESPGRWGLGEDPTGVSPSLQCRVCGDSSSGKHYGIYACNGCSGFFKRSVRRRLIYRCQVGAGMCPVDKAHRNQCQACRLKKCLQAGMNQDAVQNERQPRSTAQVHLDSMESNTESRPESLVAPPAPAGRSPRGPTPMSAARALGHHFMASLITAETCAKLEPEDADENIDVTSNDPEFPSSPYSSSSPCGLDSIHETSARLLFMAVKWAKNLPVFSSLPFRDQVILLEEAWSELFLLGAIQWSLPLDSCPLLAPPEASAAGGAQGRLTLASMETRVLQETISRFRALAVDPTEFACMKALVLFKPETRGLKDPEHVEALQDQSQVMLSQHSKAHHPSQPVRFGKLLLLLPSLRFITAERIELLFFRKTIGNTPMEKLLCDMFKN

Sequence of Tumor necrosis factor (P01375 whole entry, the tested form may be a part): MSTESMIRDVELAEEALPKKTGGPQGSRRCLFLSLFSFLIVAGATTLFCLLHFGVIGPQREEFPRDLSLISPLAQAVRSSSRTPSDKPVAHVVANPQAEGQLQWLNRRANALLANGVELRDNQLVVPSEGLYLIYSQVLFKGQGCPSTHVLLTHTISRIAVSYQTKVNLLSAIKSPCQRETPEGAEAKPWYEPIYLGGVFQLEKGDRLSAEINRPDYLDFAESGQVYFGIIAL

## CC(C)(C)c1ccc(-c2nc3ccccc3s2)cc1
Tumor necrosis factor
  IC50: 246 nM (active)
[1]
  IC50: 31.8 nM (active)
[2]
  AC50: 25800 nM (active)
H4 [3]
  AC50: 205 nM (active)
H4 [4]
  AC50: 2.26 nM (active)
H4 [5]
  AC50: 11 nM (active)
HEK293
  IC50: > 20000 nM (inactive)

## N#Cc1cccc(-c2nc(/C=C/c3ccc(F)cc3)no2)c1
[6]
  IC50: > 99000 nM (inactive)
Caspase-3
  IC50: > 99000 nM (inactive)
[7]
  IC50: > 99000 nM (inactive)
[8]
  IC50: > 99000 nM (inactive)

## COc1cccc(C(=O)c2sc(NC(C)C)nc2N)c1
[9]
  IC50: > 31000 nM (not active)
[10]
  AC50: 7120 nM (active)
[11]
  AC50: 288 nM (active)
[12]
  AC50: 252 nM (active)
[13]
  AC50: 1110 nM (active)
[14]
  IC50: 18.2 nM (active)
